According to US6548476B1, “Dimeric inhibitors of influenza neuraminidase” (priority 1999, dated 2003):
≈ marks a conversion by molar mass, not a printed value. Like-named read-outs stand apart in the source and are kept apart here.

Legend:
[1] = system: influenza A virus; assay: Inhibition of influenza A virus replication (cytopathic effect) in MDCK cells; conditions: for ID50: MDCK cells, influenza A virus
[2] = system: MDCK cells; conditions: dog
[3] = system: MDCK cells; assay: Minimum cytotoxic drug concentration in the MDCK cell replication assay
[4] = system: influenza A/Victoria/3/75 B010; assay: Inhibition of influenza A/Victoria/3/75 B010 replication, standard CPE type assay; assay type: cell-based; conditions: for EC50: three separate experiments (test 1-3)
[5] = Cytotoxicity (CC50) in the CPE type assay of Example 7; assay type: cell-based; conditions: CPE assay of Example 7; three separate experiments (test 1-3)

## CC(=O)N[C@H]1[C@H]([C@H](OC(=O)NCCCCCCN)[C@H](O)CO)OC(C(=O)O)=C[C@@H]1NC(=N)N [(7), 5-acetamido-7-(6′-aminohexyl)-carbamoyloxy-4-guanidino-2,3,4,5-tetradeoxy-D-glycero-D-galacto-non-2-enopyranosonic acid, reference compound]
[1]
  ID50 (μg of (A)): 0.32 μg of (A)
  ID50: 0.22 µg/mL (≈ 0.464 µM)
[2]
  MTC: >10 µg/mL

## CC(=O)N[C@H]1[C@H]([C@H](OC(=O)NCCCCCCNC(=O)NCCCCCCCCCCCCNC(=O)NCCCCCCNC(=O)O[C@@H]([C@@H]2OC(C(=O)O)=C[C@H](NC(=N)N)[C@H]2NC(C)=O)[C@H](O)CO)[C@H](O)CO)OC(C(=O)O)=C[C@@H]1NC(=N)N [(3), Bis-[7-(6′-hexyleneureodo)-carbamoyloxy-5-acetamido-4-guanidino-2,3,4,5-tetradeoxy-D-glycero-D-galacto-non-2-enopyranosonic acid]]
[1]
  ID50 (μg of (A)): 0.028 μg of (A)
  ID50: 0.017 µg/mL (≈ 0.0142 µM)
[3]
  MTC: >10 µg/mL

## CC(=O)N[C@H]1[C@H]([C@H](OC(=O)NCCCCCCNC(=O)CNC(=O)CNC(=O)CNC(=O)NCCCCCCNC(=O)NCC(=O)NCC(=O)NCC(=O)NCCCCCCNC(=O)O[C@@H]([C@@H]2OC(C(=O)O)=C[C@H](NC(=N)N)[C@H]2NC(C)=O)[C@H](O)CO)[C@H](O)CO)OC(C(=O)O)=C[C@@H]1NC(=N)N [(4)]
[1]
  ID50 (μg of (A)): 0.11 μg of (A)
  ID50: 0.084 µg/mL (≈ 0.0576 µM)
[3]
  MTC: >10 µg/mL

## CC(=O)N[C@H]1[C@H]([C@H](OC(=O)NCCCCCCNC(=O)NCCCCNC(=O)NCCCCCCNC(=O)O[C@@H]([C@@H]2OC(C(=O)O)=C[C@H](NC(=N)N)[C@H]2NC(C)=O)[C@H](O)CO)[C@H](O)CO)OC(C(=O)O)=C[C@@H]1NC(=N)N [(2)]
[1]
  ID50 (μg of (A)): 0.013 μg of (A)
  ID50: 0.007 µg/mL (≈ 0.00643 µM)
[3]
  MTC: >10 µg/mL

## CC(=O)N[C@H]1[C@H]([C@H](OC(=O)NCCCCCCNC(=O)CCCCCNC(=O)CCCCCNC(=O)CCCCCNC(=O)CCCCCNC(=O)NCCCCCCNC(=O)NCCCCCC(=O)NCCCCCC(=O)NCCCCCC(=O)NCCCCCC(=O)NCCCCCCNC(=O)O[C@@H]([C@@H]2OC(C(=O)O)=C[C@H](NC(=N)N)[C@H]2NC(C)=O)[C@H](O)CO)[C@H](O)CO)OC(C(=O)O)=C[C@@H]1NC(=N)N [(6)]
[1]
  ID50 (μg of (A)): 0.62 μg of (A)
  ID50: 0.63 µg/mL (≈ 0.311 µM)
[3]
  MTC: >10 µg/mL

## CC(=O)N[C@H]1[C@H]([C@H](OC(=O)NCCCCCCNC(=O)CN(CCN(CC(=O)O)CC(=O)NCCCCCCNC(=O)O[C@@H]([C@@H]2OC(C(=O)O)=C[C@H](NC(=N)N)[C@H]2NC(C)=O)[C@H](O)CO)CC(=O)O)[C@H](O)CO)OC(C(=O)O)=C[C@@H]1NC(=N)N [Compound 8, Bis-[7-(6′-methyleneamine-N-acetic acid-N-acetamido-hexyl)-carbamoyloxy-5-acetamido-4-guanidino-2,3,4,5-tetradeoxy-D-glycero-D-galacto-non-2-enopyranosonic acid]]
[4]; test 1
  EC90: 0.0671 µg/mL (≈ 0.0557 µM)
[4]
  EC50: 0.00971 µg/mL (≈ 0.00806 µM)
[5]
  CC50: >0.1 µg/mL

## CC(=O)N[C@H]1[C@H]([C@H](OC(=O)NCCCCCCNC(=O)CCCCCNC(=O)CCCCCNC(=O)NCCCCCCCCCCCCNC(=O)NCCCCCC(=O)NCCCCCC(=O)NCCCCCCNC(=O)O[C@@H]([C@@H]2OC(C(=O)O)=C[C@H](NC(=N)N)[C@H]2NC(C)=O)[C@H](O)CO)[C@H](O)CO)OC(C(=O)O)=C[C@@H]1NC(=N)N [(5)]
[1]
  ID50 (μg of (A)): 0.42 μg of (A)
  ID50: 0.35 µg/mL (≈ 0.212 µM)
[3]
  MTC: >10 µg/mL

## CC(=O)N[C@H]1[C@H]([C@H](O)[C@H](O)CO)OC(C(=O)O)=C[C@@H]1NC(=N)N [Compound (A), 4-guanidino-2-deoxy-2,3-dehydro-N-acetylneuraminic acid, reference compound]
[1]
  ID50 (μg of (A)): 0.028 μg of (A)
  ID50: 0.0095 µg/mL (≈ 0.0286 µM)
[4]; Influenza A virus, read-out: EC50
  EC50: 0.009 µg/mL (≈ 0.0271 µM)
[3]
  MTC: >10 µg/mL
